Experimental data as given in patent US20160251403A1, “PEPTIDE COMBINATIONS AND USES THEREOF IN TREATING DUST MITE ALLERGY” (ALK-ABELLO A/S, priority 2013, published 2016).
No end group written: not given here.

How the values were obtained:
[1] = Solubility of peptides in aqueous solutions at different pH (visual inspection, OD, HPLC); format: physicochemical
Summary of the method: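 Peptides at about 0.25 mM or 1 mM final in water, pH 2 HCl, or pH 5, 7 or 9 buffers with 140 mM NaCl, optionally with about 20% DMSO. Turbidity and particles checked visually before and after centrifugation and by OD. RP-HPLC peak height or area was compared with peptide dissolved in acetonitrile or DMSO.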

DQA10101-DQB10501 = DQA10101-DQB10501 (Homo sapiens, UniProt P01909+P01920, A157S/A45G/A70V/C70R/D89V/E106S/E118A/E183D/E77G/F83G/G63E/H151Q/H199R/H252R/H253Q/I129T/I235V/I88M/INS77G/K197Q/L107V/L117V/L119Y/L178F/L71W/L74F/L85Q/L91A/L98M/M46L/N214S/P87R/Q116E/Q256R/Q57E/Q76K/R102G/R240Q/R75S/R78G/S102Y/S185I/S41F/S97I/T103A/T109R/T121G/T122I/T172A/T86R/V148I/V68A/V73E/Y34C/Y58G/Y62H); test: Competitive MHC class II binding assay, DQA10101-DQB10501; settings: positive binding at cutoff 1000 nM; read-out: HLA-DQA10101-DQB10501
DRB1_0101 = DRB1_0101 (Homo sapiens, UniProt P01903+P01911, A100R/D57E/F55L/F60I/F76Y/I96L/L162R/M171V/P40L/Q125E/R42F/V115G/Y59C); test: Competitive MHC class II binding assay, DRB1_0101;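 further: competition against a radiolabeled probe peptide (0.1–1 nM) for purified HLA class II protein over 2–4 days, bound counts read after antibody capture, six competitor levels across 100,000-fold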
DRB1_0802 = DRB1_0802 (Homo sapiens, UniProt P01903+P01911, A100R/A103L/A169T/F76Y/H45Y/I96F/K41T/L162R/M171V/P40S/Q125H/Q178H/Q39Y/Q99D/R218S/R42G/S66Y/V115G/W38E); test: Competitive MHC class II binding assay, DRB1_0802
DRB5_0101 = DRB5_0101 (Homo sapiens, UniProt P01903+Q30154); test: Competitive MHC class II binding assay, DRB5_0101
DPA10103-DPB10201 = biological target: T1, DPA10103-DPB10201 (Homo sapiens, UniProt P04440+P20036, A65V/A84D/A85E/K98E); test: Competitive MHC class II binding assay, DPA10103-DPB10201
T1 sequence (P20036 29-260): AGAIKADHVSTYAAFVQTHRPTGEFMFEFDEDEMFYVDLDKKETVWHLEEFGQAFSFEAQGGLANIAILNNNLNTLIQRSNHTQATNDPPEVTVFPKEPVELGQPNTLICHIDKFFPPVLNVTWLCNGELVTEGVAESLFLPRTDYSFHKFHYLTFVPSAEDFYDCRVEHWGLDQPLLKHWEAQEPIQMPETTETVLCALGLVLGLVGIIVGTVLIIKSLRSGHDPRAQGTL
T1 sequence (P04440 30-258 A65V/A84D/A85E/K98E): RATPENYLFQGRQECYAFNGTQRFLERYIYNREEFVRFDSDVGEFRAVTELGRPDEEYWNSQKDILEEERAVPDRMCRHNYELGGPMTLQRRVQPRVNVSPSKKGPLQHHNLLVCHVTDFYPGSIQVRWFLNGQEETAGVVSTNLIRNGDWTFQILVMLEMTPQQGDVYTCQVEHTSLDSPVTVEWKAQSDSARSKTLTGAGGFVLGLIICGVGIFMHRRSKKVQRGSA

DQA10501-DQB10301 = DQA10501-DQB10301 (Homo sapiens, UniProt P01909+P01920); test: Competitive MHC class II binding assay, DQA10501-DQB10301
DRB1_1501 = DRB1_1501 (Homo sapiens, UniProt P01903+P01911); test: Competitive MHC class II binding assay, DRB1_1501
DRB1_1101 = DRB1_1101 (Homo sapiens, UniProt P01903+P01911, A100R/A169T/A87E/I96F/K41T/L162R/M171V/P40S/Q125H/Q178H/Q39Y/Q99D/R42S/S66Y/T262R/V115G/W38E); test: Competitive MHC class II binding assay, DRB1_1101

Compound	Solubility at pH 7 (visual inspection) [1]	IC50 (DQA10101-DQB10501) [nM]	IC50 (DRB1_0101) [nM]	IC50 (DRB1_0802) [nM]	IC50 (DRB5_0101) [nM]	IC50 (DPA10103-DPB10201) [nM]	IC50 (DQA10501-DQB10301) [nM]	IC50 (DRB1_1501) [nM]	IC50 (DRB1_1101) [nM]	Solubility at pH 7 ([1]; Table 11a, evaluated by visual inspection)
CC[C@H](C)[C@H](NC(=O)CNC(=O)[C@@H](NC(=O)[C@@H](NC(=O)[C@@H](NC(=O)[C@H](C)NC(=O)[C@@H](NC(=O)[C@H](C)NC(=O)[C@H](CO)NC(=O)[C@H](Cc1c[nH]cn1)NC(=O)[C@@H](NC(=O)[C@H](CCC(N)=O)NC(=O)[C@H](C)NC(=O)[C@H](CC(C)C)NC(=O)[C@H](C)NC(=O)[C@H](CCC(=O)O)NC(=O)[C@@H](N)CCCNC(=N)N)[C@@H](C)O)[C@@H](C)CC)C(C)C)[C@@H](C)CC)[C@@H](C)CC)C(=O)N[C@@H](CCCCN)C(=O)N[C@@H](CC(=O)O)C(=O)N[C@@H](CC(C)C)C(=O)N[C@@H](CC(=O)O)C(=O)N[C@@H](C)C(=O)O [pep-130]	Slight turbid	< 1000	< 1000	< 1000	< 1000	< 1000	< 1000			
DNGYGYFAANIDLMMIEE [pep-010]		< 1000	< 1000	< 1000		< 1000	< 1000	< 1000		
HAVNIVGYSNAQGVDYWIVR [pep-058]	Slight turbid	< 1000		< 1000			< 1000	< 1000	< 1000	

The remaining lines, values ahead:

Solubility at pH 7 (visual inspection) [1]	IC50 (DQA10101-DQB10501) [nM]	IC50 (DRB1_0101) [nM]	IC50 (DRB1_0802) [nM]	IC50 (DRB5_0101) [nM]	IC50 (DPA10103-DPB10201) [nM]	IC50 (DQA10501-DQB10301) [nM]	IC50 (DRB1_1501) [nM]	IC50 (DRB1_1101) [nM]	Solubility at pH 7 ([1]; Table 11a, evaluated by visual inspection)	Compound
	< 1000	< 1000				< 1000	< 1000	< 1000		GSGSSWAFSGVAATESAYLA [pep-044]
		< 1000	< 1000	< 1000		< 1000				LVGDNGVLASAIATHAKIRD [pep-110]
		< 1000	< 1000	< 1000	< 1000				Clear	LVKGQQYDIKYTWNVPKIAPK [pep-131]
